Experimental data: patent publication US20060235084A1, “PEG-polyacetal diblock and triblock copolymers and pharmaceutical compositions” (priority 2005, published 2006)

Test: In vitro release of paclitaxel from triblock copolymer gel into PBS release media
Format: physicochemical
Conditions: 23% by weight aqueous triblock copolymer of Example 1, paclitaxel approx. 2.0 mg/ml; PBS pH 7.4 with 2.4% Tween-80 and 4% Cremophor EL, 37° C.; HPLC
Description: To a 23% by weight aqueous solution of the triblock copolymer of Example 1 is added sufficient paclitaxel to provide approximately 2.0 mg/ml of drug. A 2 ml sample of this solution is put onto a watchglass and equilibrated at 37° C. Since the temperature is greater than the gelation temperature of the copolymer, a gel formed on the watchglass. The watchglass is placed in a 200 ml beaker containing release media comprised of 150 ml of PBS (pH 7.4) containing 2.4% by weight Tween-80 and 4% by weight Cremophor EL equilibrated at 37° C. The solution in the beaker was stirred, and the top of the beaker is sealed to prevent evaporation. The whole assembly was placed into an incubator at 37° C. The release study is performed in triplicate. At different time periods a 5 ml aliquot of the release media was taken and analyzed for […]. The PBS solution was replaced with fresh PBS after each aliquot removal. Samples were collected at 1, 2, 4, 8, 18, and 24 hours, and thereafter at 24 hour intervals, and analyzed by HPLC. The release profile of […] from the gel is determined. The gel formulation provides excellent control over the release of the paclitaxel for approximately 50 days.

duration of controlled release from the gel formulation: approximately 50 days
Compound: CC(=O)O[C@H]1C(=O)[C@@]2(C)[C@H]([C@H](OC(=O)c3ccccc3)[C@]3(O)C[C@H](OC(=O)[C@H](O)[C@@H](NC(=O)c4ccccc4)c4ccccc4)C(C)=C1C3(C)C)[C@]1(OC(C)=O)CO[C@@H]1C[C@@H]2O [paclitaxel]
